In patent US6939863B2, “Prevention of atherosclerosis and restenosis” (priority 2002, dated 2005):
“Also recorded” adds a separate entry of the source. Like-named read-outs stand apart in the source and are kept apart here.

Experiments:
[1] = system: rat vascular smooth muscle cells; experiment: [methyl-3H]thymidine incorporation into VSMCs; type: cell-based
Experimental: (§1) Rat vascular smooth muscle cells (VSMCs) (passages 5-10) were prepared from Sprague-Dawley rats and cultured in Dulbecco's modified Eagle's medium (DMEM) supplemented with 10% fetal bovine serum (FBS) as previously described (Kirschenlohr et al, in “Human Cell Culture Protocols”, New Jersey, Humana Press Inc, 1996, pp. 318-335). Human endothelial cells from umbilical veins were prepared as described (Morgan, in “Human Cell Culture Protocols”, New Jersey, Humana Press Inc, 1996, pp. 101-152)
(§2) Rat vascular smooth muscle cells and human endothelial cells were plated at a density of 10,000 cells per square centimeter in 24-well plates. After 24 hours, cells at 70-80% confluency were treated with propylthiouracil dissolved in 100% dimethylsulfoxide (DMSO) at final concentrations of from 0.05 millimolar to 15 millimolar, or with methimazole (Sigma, St. Louis, Mo.) dissolved in water at the concentrations of from 0.01 millimolar to 1 millimolar for 24-72 hours. Cell numbers were visually counted using a hemocytometer. For the thymidine incorporation study, cells were deprived of serum for 36 hours and labeled with [methyl-^3H]thymidine at […] per milliliter for 12-24 hours after synchronization. Thymidine incorporation was then measured (Newby and George, 1996, Curr. Opin. Cardiol., 11:547). Effects of propylthiouracil and methimazole on the number of vascular smooth muscle cells and human endothelial cells and thymidine incorporation by vascular smooth muscle cells were each expressed as a percentage of the number and thymidine incorporation of control cells maintained in medium containing 0.1% DMSO as vehicle.

[2] = system: human endothelial cells from umbilical veins; experiment: cells
Experimental: as §1, §2

[3] = system: rat vascular smooth muscle cells
[4] = system: rat vascular smooth muscle cells; conditions: for Pyknosis or karyorhexis (features of apoptosis), propidium iodide-stained cells: 5 millimolar, 24 hours
[5] = system: rat vascular smooth muscle cells; conditions: summary table, propylthiouracil; non-contractile to contractile phenotype in vitro
[6] = summary table; cited from earlier work
[7] = Rabbit 12-week study: body weight, chow and water consumption, serum lipids, thyroid hormone index, blood counts, arterial pressure, heart rate; conditions: for Weight at sacrifice / Chow consumption: 12 weeks; for Chow consumption / Water consumption: mean ± SD
[8] = propylthiouracil-treated groups
Wherever Anti-inflammation is given: key: '+' represents the ability; a '−' represents the inability of conversion from a non-contracile phenotype to a contractile phenotype in an in vitro condition; A '↓' represents decrease; a '?' represents no data is available.

Compound: CCCc1cc(=O)[nH]c(=S)[nH]1 [Propylthiouracil, 6-n-propyl-2-thiouracil]
- Thymidine incorporation into VSMCs ([1]; 0.05 millimolar): 99 % of control
- Thymidine incorporation into VSMCs ([1]; 0.5 millimolar): 93 % of control
- Thymidine incorporation into VSMCs ([1]; 2.5 millimolar): 75 % of control
- Thymidine incorporation into VSMCs ([1]; 5 millimolar): 38 % of control
- Inhibition of thymidine incorporation into VSMCs ([1]; concentration-dependent): significantly inhibited
- Concentration at which significant inhibition of growth of vascular endothelial cells was observed ([2]; 24 hours): ≥ 10 millimolar
- Growth of vascular endothelial cells ([2]; 24 hours, concentrations of up to 7.5 millimolar): did not significantly inhibit
- Difference in inhibitory effect, vascular endothelial cells less than vascular smooth muscle cells ([2]; FIG. 7): 20-30%
- IC50 ([2]; Homo sapiens, Endothelial cell, 24 h, read-out: IC50 for endothelial cells (proliferation)): 12 mM
- Endothelial cellular function ([2]; summary table, propylthiouracil): +
- Cytotoxic effect on VSMCs by trypan blue exclusion test ([3]; 24 hours): no cytotoxic effect
- Number of cells that excluded trypan blue ([3]; 24 hours treatment, n=5): 94.4±0.4%
- Pyknosis or karyorhexis (features of apoptosis), propidium iodide-stained cells [4]: did not cause any pyknosis or karyorhexis
- Pyknosis or karyorhexis (features of apoptosis), propidium iodide-stained cells ([4]; listed as propylthiouracil): did not cause pyknosis or karyorhexis
- TUNEL-positive cells in VSMCs ([4]; propylthiouracil-treated VSMCs): absent
- Phenotype change [5]: +
- Anti-inflammation [6]: +
- Serum (milligrams percent) at sacrifice ([7]; 2% cholesterol diet): 43 ± 33 milligrams percent
- Serum CHO at sacrifice ([7]; 2% cholesterol diet): 1965 ± 156 milligrams percent
- Serum HDL at sacrifice ([7]; 2% cholesterol diet): 67 ± 24 milligrams percent
- Serum LDL at sacrifice ([7]; 2% cholesterol diet): 1856 ± 152 milligrams percent
- Serum TG at sacrifice ([7]; 2% cholesterol diet): 213 ± 167 milligrams percent
- Weight at sacrifice ([7]; 2% cholesterol diet): 3.06 ± 0.17 kilograms
- Chow consumption ([7]; 2% cholesterol diet): 123 ± 18 grams per day
- Water consumption ([7]; 2% cholesterol diet): 201 ± 41 milliliters per day
- Body weight at the end of treatment ([7]; PTU and CHO+PTU groups, despite decreased water and chow intake): did not have a reduction in the body weight
- Serum thyroxine (T4) ([7]; after 4 weeks of treatment): decreased-to unmeasurable levels
- Serum triiodothyronine (T3) ([7]; after 4 weeks of treatment): decreased-to unmeasurable levels; also recorded: decreased to unmeasurable levels
- Thyrotropin (TSH) level ([7]; hypothyroid groups): increase
- Arterial pressures and heart rates ([7]; hypothyroid propylthiouracil-treated groups): did not have their arterial pressures and heart rates altered
- Serum (milligrams percent) at sacrifice ([7]; normal chow): 32 ± 8 milligrams percent
- Serum CHO at sacrifice ([7]; normal chow): 154 ± 22 milligrams percent
- Serum HDL at sacrifice ([7]; normal chow): 43 ± 30 milligrams percent
- Serum LDL at sacrifice ([7]; normal chow): 82 ± 32 milligrams percent
- Serum TG at sacrifice ([7]; normal chow): 175 ± 50 milligrams percent
- Weight at sacrifice ([7]; normal chow): 3.08 ± 0.17 kilograms
- Chow consumption ([7]; normal chow): 113 ± 13 grams per day
- Water consumption ([7]; normal chow): 196 ± 17 milliliters per day
- Serum cholesterol, triglyceride, LDL, and VLDL levels compared with the control group ([7]; normal chow, propylthiouracil only (Group 2)): slight increase
- Agranulocytosis [7, 8]: did not occur
- Blood counts [7, 8]: remained essentially unchanged
